Source: US20260216328A1, “DISRUPTABLE LINKER COMPOSITIONS, SWITCHABLE BISPECIFIC T CELL NANOENGAGER (SWITCH-BITE) COMPOSITIONS COMPRISING THE SAME, AND METHODS OF USE THEREOF” (The Trustees of the University of Pennsylvania, priority 2023, published 2026)

Assays:
[1] = system: Raji-Luc-GFP tumour cells; test: Cytokine release syndrome in humanized NSG-SGM3 mice with Raji-Luc-GFP tumour; type: in vivo, mouse; conditions: 10 mg/kg AMD i.v., 24 h post-AMD
Experimental: An in vivo imaging system (IVIS) was used to monitor tumour burden in vivo. […] FIGS. 41C-41E: Mouse body weight, temperature and survival curves, respectively. n=10 mice. […] The data in FIGS. 41C-41D and FIGS. 41F-41J were plotted as mean±s.d. (n=10) from three independent experiments. […] P value in FIG. 41E was determined using Log-rank (Mantel-Cox) test.
SiTE and Blinatumomab were also compared with regard to treating symptoms of CRS and neurotoxicity. The humanized mouse model was constructed as before, but this time the piggybac transposon system was not used to express CD19 in the mouse livers. This allowed better analysis of the effects of the SiTE on CRS and neurotoxicity (FIG. 41A). Raji-Luc-GFP cells were i.v. injected at day −14. Blinatumomab, SiTE or PBS were i.v. injected to the mice at day one. Mouse tumour burden, body weight, temperature, and plasma cytokine levels were monitored (FIGS. 41B-41J).

[2] = system: E0771-HER2 cells and primary mouse T cells; test: T cell-tumour cell engagement by confocal microscopy; type: cell-based
Experimental: E0771-HER2 cells were labeled with CSFE-green and primary T cells were labelled with CFSE-red. The two cells were co-cultured and then treated with PBS or SiTE for 2 h. After that, the cells were observed by confocal imaging. T cell to T cell interactions and T cell to tumour cell interactions were counted manually by taking 10 images for quantification.
After synthesis and characterization of the AMD-responsive SiTE, the ability of SiTE to induce tumour cell-T cell engagement and tumour cell lysis was tested (FIG. 11A). E0771-HER2 cells were incubated with primary mouse T cells at a 1:1 ratio. Cells were then treated with SiTEs at varying concentrations for 4 h and observed under confocal laser scanning microscopy (CLSM) (FIG. 11B). In the untreated control group, cancer cells and T cells were randomly distributed with few T cells and cancer cells engaged. However, in groups receiving 5 ng/mL of SiTE, ~10% of T cells were engaged with tumour cells, and this rate increased to ~90% when cells were treated with 20 ng/mL of SiTE. […] To ensure the specificity of this engagement. […] Since the SiTE contains >20 Fabs, it is possible that it may induce T cell-to-T cell engagement and induce cytokine release. […] After 24 h, mouse blood was collected and the T cell crosslinking levels and IL-6 and TNF-α levels were measured. […]

[3] = system: E0771-HER2 tumour; test: E0771-HER2 tumour model with HER2 expression in the liver (on-target, off-tumour toxicity)
Experimental: FIG. 26A: mouse model with expression of human HER2 antigen in the liver was constructed using a piggyback transposon system delivered via lipid nanoparticles (LNPs) encapsulating two plasmids, pCMV-hyPBase and pPB7 TBG.human HER2.P2A.IRFP720, at day −30. At day 0, 10^6 E0771-HER2 tumour cells were injected s.c. into the right flank at day 0. […] FIGS. 26B-26D: mouse tumour growth curves, measurements of mouse body weight, and survival curves, respectively. n=8 mice. P value in FIG. 26D was determined using Log-rank (Mantel-Cox) test. […] FIGS. 26E-26K: measurements of markers for inflammation and toxicity including AST, ALT, TNF-α, IFN-γ, and IL-2 levels in mouse blood at different time points. n=3 mice. […] H&E staining was conducted to detect liver damage in different groups. Scale bar: […]. […] Blue: DAPI: Red, CD3^+ T cells. […] (n=5).
T cell infiltration in the liver was measured using flow (FIG. 27A). FIG. 27B: liver T cells in different treatment groups at day 13. […] P values were indicated in FIGS. 27B-27C, analyzed by two-tailed unpaired Student's t-test. n=3.
Recently, a mouse model was reported with stable human HER2 antigen expression in the mouse liver. […] Here, the construction of this mouse model was modified and two plasmids were delivered using a lipid nanoparticle (FIGS. 25A-25D). […] Next, a E0771-HER2 tumour model was constructed in mice with HER2 expression in the liver (FIG. 26A). […] The mice were then monitored for tumour growth, body weight, and survival (FIGS. 26B-26D).

[4] = system: E0771-HER2 tumour; test: E0771-HER2 tumour growth inhibition in C57/BL6 mice; type: in vivo, mouse; conditions: following AMD infusion after SiTE
Excerpt: FIG. 20A: 106 E0771-HER2 cells were s.c. injected into the right flank of C57/BL6 mice. […] All mice were euthanized at day 23. FIG. 20B: images of mice from all treatment groups on day 23. FIG. 20C: tumour growth curves for different groups. Tumour tissue was isolated on Day 23 and observed for immune cell infiltration. FIG. 20D: repeat of the tumour growth inhibition experiment. FIG. 20E: mouse body weight change during the tumour inhibition experiment. FIG. 20F: percentages of CD45+, CD45+CD3+, CD45+CD3+CD4+/CD8+ cells in the tumour tissues. FIG. 20G: immunofluorescence images of the tumour tissues in different groups with cell nuclei labeled with DAPI (blue) and T cells labeled with anti-CD3 antibody (green). Scale bar: 100 μm.
Tumour size and mouse weight were monitored.
Minimal changes in mouse weight were observed across the different groups (FIG. 20E), likely because HER2 antigen is not expressed on normal mouse cells, preventing toxicity from on-target, off-tumour activity. At day 23, all mice were euthanized and tumour tissue was collected to determine total lymphocyte and CD3^+ T cell infiltration using flow cytometry and immunofluorescence imaging.
Additionally, to confirm that this impact on the tumour tissue was HER2 specific, SiTE activity was evaluated in a HER2 negative E0771 tumour model (FIGS. 24A-24J).

[5] = system: Raji-Luc-GFP tumour cells; test: Humanized immune system mice with liver CD19 and Raji-Luc-GFP tumour; conditions: AMD i.v. at day 7 after SiTE

## NC12CC3CC(CC(C3)C1)C2 [AMD, adamantan-1-amine]
[1]
  increased cytokine levels after AMD: gradually recovered to within normal ranges
[2]; 100 ng/mL AMD after 20 ng/mL SiTE for 4 h
  separation of conjugated cells: ~ 40%
[2]; 1 μg/mL AMD after 20 ng/mL SiTE for 4 h
  separation of conjugated cells: ~100%
[3]; 100 μg AMD on day 13 after SiTE
  body weight: gradual increases in body weight and recovered to a normal range
[3]; 24 h after AMD infusion following SiTE
  ALT and AST levels in blood: returned to lower levels
[3]; AMD infusion after SiTE treatment
  T cells in liver tissue: greatly decreased the number of T cells in liver tissue
[4]
  number of T cells in the tumour tissue: greatly decreased
[5]
  liver enzyme and cytokine levels in blood: greatly decrease the liver enzyme levels and cytokine levels in blood
